What was measured:
[1] = tested on: NTF-reticulum cell sarcoma; test: Antitumor activity test using NTF-reticulum cell sarcoma in ICR-JCL mice; assay type: in vivo; conditions: intraperitoneal, once a day for 10 days, fifth week
Description: (§1) The ascites cells of Sarcoma 180 were inoculated peritoneally in ICR-JCL mice having a body weight of about 23 g. […] Starting 24 hours after the transplantation, the glucanpolyol of this invention was intraperitoneally administered once a day for 10 days. In the fifth week, the tumor was enucleated and its weight was compared with that in non-treated groups. The tumor inhibition ratio was calculated, and the number of tumors which completely regressed was observed.
(§2) The tumor inhibition ratio was calculated in accordance with the following equation. [formula] wherein C is the average weight of tumor in non-treated groups (10 mice per group),
(§3) T is the average weight of tumor in treated groups (10 mice per group).
(9) An antitumor activity test using NTF-reticulum cell sarcoma in ICR-JCL mice
Six million NFT-reticulum cell sarcoma cells were transplanted into the subcutaneous portion of the right inguinal part of ICR-JCL mice having a body weight of about 23 g, and then, the same operation as in (1) above was performed.

[2] = Intrinsic viscosity [.eta.]; assay type: physicochemical; conditions: 25° C., aqueous solution; concentration in g/100 ml
Description: The intrinsic viscosity, as used in the present invention, is [.eta.] defined by the following equation. [formula] wherein .eta.sp =(.eta.-.eta.o)/.eta.o =/.eta.o -1 in which .eta. is the viscosity (at 25° C. in aqueous solution) of the solution and .eta.o is the viscosity of the solvent; and C is the concentration in g/100 ml.

CCM-adenocarcinoma = test: Antitumor activity test using CCM-adenocarcinoma in ICR-JCL mice; assay type: in vivo; conditions: intraperitoneal, once a day for 10 days, fifth week
Description: as §1, §2, §3
(8) An antitumor activity test using CCM-adenocarcinoma in ICR-JCL mice
Six million CCM-adenocarcinoma cells were transplanted into the subcutaneous portion of the right inguinal part of ICR-JCL mice having a body weight of about 23 g, and then the same operation as in (1) above was performed.

Sarcoma 180 [3] = test: Antitumor activity test using Sarcoma 180 in C57 BL/6 mice; assay type: in vivo; conditions: intraperitoneal, once a day for 10 days, fifth week
Description: as §1, §2, §3
(6) An antitumor activity test using Sarcoma 180 in C57 BL/6 mice
Six million Sarcoma 180 cells were transplanted into the subcutaneous portion of the right inguinal part of the C57 BL/6 mice having a body weight of about 20 g, and then the same operation as in (1) above was performed.

Sarcoma 180 [4] = test: Antitumor activity test using Sarcoma 180 in ddY mice; assay type: in vivo; conditions: intraperitoneal, once a day for 10 days, fifth week
Description: as §1, §2, §3
(7) An antitumor activity test using Sarcoma 180 in ddY mice
Six million Sarcoma 180 cells were transplanted into the subcutaneous portion of the right inguinal part of ddY mice having a body weight of about 23 g, and then, the same operation as in (1) above was performed.

Ehrlich Carcinoma = test: Antitumor activity test using Ehrlich Carcinoma in ICR-JCL mice; assay type: in vivo; conditions: intraperitoneal, once a day for 10 days, fifth week
Description: (§4) Starting 24 hours after the transplantation, the glucanpolyol of this invention was intraperitoneally administered once a day for 10 days. In the fifth week, the tumor was enucleated and its weight was compared with that in non-treated groups. The tumor inhibition ratio was calculated, and the number of tumors which completely regressed was observed.
as §2, §3
(2) An antitumor activity test using Ehrlich Carcinoma in ICR-JCL mice

Sarcoma 180 [5] = test: Antitumor activity test using Sarcoma 180 in ICR-JCL mice; assay type: in vivo; conditions: intraperitoneal, once a day for 10 days, fifth week
Description: (1) An antitumor activity test using Sarcoma 180 in ICR-JCL mice
as §4, §2, §3

Sarcoma 180 [6] = test: Antitumor activity test using Sarcoma 180 in Balb/c mice; assay type: in vivo; conditions: intraperitoneal, once a day for 10 days, fifth week
Description: as §1, §2, §3
(5) An antitumor activity test using Sarcoma 180 in Balb/c mice
Six million Sarcoma 180 cells were transplanted into the subcutaneous portion of the right inguinal part of the Balb/c mice having a body weight of about 23 g, and then, the same operation as in (1 ) above was performed.

Sarcoma 180 [7] = test: Antitumor activity test using Sarcoma 180 in C3H/He mice; assay type: in vivo; conditions: intraperitoneal, once a day for 10 days, fifth week
Description: as §4, §2, §3
(4) An antitumor activity test using Sarcoma 180 in C3H/He mice

Meth-A = test: Antitumor activity test using Meth-A in Balb/c mice; assay type: in vivo; conditions: intraperitoneal, once a day for 10 days, fifth week
Description: as §4, §2, §3
(3) An antitumor activity test using Meth-A in Balb/c mice

ICR-JCL mice = test: Toxicity (LD50) on ICR-JCL mice; assay type: in vivo; conditions: for LD50 Intraperitoneal administration / LD50 Intravenous administration / LD50 Oral administration: ICR-JCL mice
From the text: The toxicity of the β-1,3-glucanpolyol of this invention is very low, and the LD50 values of the products obtained in Examples 1, 4 and 5, for example, on ICR-JCL mice are as shown in Table 10.

β-1,3-glucanpolyol [Example 1]
Average weight of tumor ([1]; 1 mg/kg/day): 0.51 g | Complete regression ([1]; 1 mg/kg/day): 8/10 | Tumor inhibition ratio ([1]; 1 mg/kg/day): 91.1% | Intrinsic viscosity [.eta.] [2]: 6.21 dL/g | Average weight of tumor (CCM-adenocarcinoma; 1 mg/kg/day): 0.52 g | Complete regression (CCM-adenocarcinoma; 1 mg/kg/day): 7/10 | Tumor inhibition ratio (CCM-adenocarcinoma; 1 mg/kg/day): 95.7% | Average weight of tumor (Sarcoma 180 [3]; 1 mg/kg/day): 0.15 g | Complete regression (Sarcoma 180 [3]; 1 mg/kg/day): 8/10 | Tumor inhibition ratio (Sarcoma 180 [3]; 1 mg/kg/day): 95.8% | Average weight of tumor (Sarcoma 180 [4]; 1 mg/kg/day): 0.39 g | Complete regression (Sarcoma 180 [4]; 1 mg/kg/day): 7/10 | Tumor inhibition ratio (Sarcoma 180 [4]; 1 mg/kg/day): 96.5% | Average weight of tumor (Ehrlich Carcinoma; 1 mg/kg/day): 0 g | Complete regression (Ehrlich Carcinoma; 1 mg/kg/day): 10/10 | Tumor inhibition ratio (Ehrlich Carcinoma; 1 mg/kg/day): 100% | Average weight of tumor (Ehrlich Carcinoma; 5 mg/kg/day): 0 g | Complete regression (Ehrlich Carcinoma; 5 mg/kg/day): 10/10 | Tumor inhibition ratio (Ehrlich Carcinoma; 5 mg/kg/day): 100% | Average weight of tumor (Ehrlich Carcinoma; 20 mg/kg/day): 0.31 g | Complete regression (Ehrlich Carcinoma; 20 mg/kg/day): 7/10 | Tumor inhibition ratio (Ehrlich Carcinoma; 20 mg/kg/day): 97.9% | Average weight of tumor (Sarcoma 180 [5]; 1 mg/kg/day): 0.28 g | Complete regression (Sarcoma 180 [5]; 1 mg/kg/day): 9/10 | Tumor inhibition ratio (Sarcoma 180 [5]; 1 mg/kg/day): 97.5% | Average weight of tumor (Sarcoma 180 [5]; 5 mg/kg/day): 0 g | Complete regression (Sarcoma 180 [5]; 5 mg/kg/day): 10/10 | Tumor inhibition ratio (Sarcoma 180 [5]; 5 mg/kg/day): 100% | Average weight of tumor (Sarcoma 180 [5]; 10 mg/kg/day): 0.17 g | Complete regression (Sarcoma 180 [5]; 10 mg/kg/day): 9/10 | Tumor inhibition ratio (Sarcoma 180 [5]; 10 mg/kg/day): 98.5% | Average weight of tumor (Sarcoma 180 [6]; 1 mg/kg/day): 0.08 g | Complete regression (Sarcoma 180 [6]; 1 mg/kg/day): 9/10 | Tumor inhibition ratio (Sarcoma 180 [6]; 1 mg/kg/day): 97.8% | Average weight of tumor (Sarcoma 180 [7]; 1 mg/kg/day): 5.14 g | Complete regression (Sarcoma 180 [7]; 1 mg/kg/day): 0/10 | Tumor inhibition ratio (Sarcoma 180 [7]; 1 mg/kg/day): 60.2% | Average weight of tumor (Sarcoma 180 [7]; 5 mg/kg/day): 2.14 g | Complete regression (Sarcoma 180 [7]; 5 mg/kg/day): 6/10 | Tumor inhibition ratio (Sarcoma 180 [7]; 5 mg/kg/day): 83.4% | Average weight of tumor (Sarcoma 180 [7]; 20 mg/kg/day): 4.62 g | Complete regression (Sarcoma 180 [7]; 20 mg/kg/day): 1/10 | Tumor inhibition ratio (Sarcoma 180 [7]; 20 mg/kg/day): 64.2% | Average weight of tumor (Meth-A; 1 mg/kg/day): 7.74 g | Complete regression (Meth-A; 1 mg/kg/day): 0/10 | Tumor inhibition ratio (Meth-A; 1 mg/kg/day): 42.1% | Average weight of tumor (Meth-A; 5 mg/kg/day): 5.57 g | Complete regression (Meth-A; 5 mg/kg/day): 0/10 | Tumor inhibition ratio (Meth-A; 5 mg/kg/day): 58.3% | Average weight of tumor (Meth-A; 20 mg/kg/day): 9.25 g | Complete regression (Meth-A; 20 mg/kg/day): 0/10 | Tumor inhibition ratio (Meth-A; 20 mg/kg/day): 30.8% | LD50 Intraperitoneal administration (ICR-JCL mice): above 2 g/kg | LD50 Intravenous administration (ICR-JCL mice): above 0.5 g/kg | LD50 Oral administration (ICR-JCL mice): above 20 g/kg

β-1,3-glucanpolyol [Example 4]
Average weight of tumor ([1]; 1 mg/kg/day): 0.67 g | Complete regression ([1]; 1 mg/kg/day): 8/10 | Tumor inhibition ratio ([1]; 1 mg/kg/day): 88.3% | Average weight of tumor ([1]; 5 mg/kg/day): 0.83 g | Complete regression ([1]; 5 mg/kg/day): 6/10 | Tumor inhibition ratio ([1]; 5 mg/kg/day): 85.6% | Intrinsic viscosity [.eta.] [2]: 3.27 dL/g | Average weight of tumor (CCM-adenocarcinoma; 1 mg/kg/day): 0 g | Complete regression (CCM-adenocarcinoma; 1 mg/kg/day): 10/10 | Tumor inhibition ratio (CCM-adenocarcinoma; 1 mg/kg/day): 100% | Average weight of tumor (CCM-adenocarcinoma; 5 mg/kg/day): 0.23 g | Complete regression (CCM-adenocarcinoma; 5 mg/kg/day): 8/10 | Tumor inhibition ratio (CCM-adenocarcinoma; 5 mg/kg/day): 98.1% | Average weight of tumor (Sarcoma 180 [3]; 1 mg/kg/day): 0.13 g | Complete regression (Sarcoma 180 [3]; 1 mg/kg/day): 9/10 | Tumor inhibition ratio (Sarcoma 180 [3]; 1 mg/kg/day): 96.4% | Average weight of tumor (Sarcoma 180 [3]; 5 mg/kg/day): 0.12 g | Complete regression (Sarcoma 180 [3]; 5 mg/kg/day): 9/10 | Tumor inhibition ratio (Sarcoma 180 [3]; 5 mg/kg/day): 96.6% | Average weight of tumor (Sarcoma 180 [4]; 1 mg/kg/day): 0.25 g | Complete regression (Sarcoma 180 [4]; 1 mg/kg/day): 8/10 | Tumor inhibition ratio (Sarcoma 180 [4]; 1 mg/kg/day): 97.7% | Average weight of tumor (Sarcoma 180 [4]; 5 mg/kg/day): 0.54 g | Complete regression (Sarcoma 180 [4]; 5 mg/kg/day): 8/10 | Tumor inhibition ratio (Sarcoma 180 [4]; 5 mg/kg/day): 95.2% | Average weight of tumor (Ehrlich Carcinoma; 1 mg/kg/day): 1.48 g | Complete regression (Ehrlich Carcinoma; 1 mg/kg/day): 6/10 | Tumor inhibition ratio (Ehrlich Carcinoma; 1 mg/kg/day): 90.1% | Average weight of tumor (Ehrlich Carcinoma; 5 mg/kg/day): 0.97 g | Complete regression (Ehrlich Carcinoma; 5 mg/kg/day): 6/10 | Tumor inhibition ratio (Ehrlich Carcinoma; 5 mg/kg/day): 93.5% | Average weight of tumor (Sarcoma 180 [5]; 1 mg/kg/day): 0.92 g | Complete regression (Sarcoma 180 [5]; 1 mg/kg/day): 6/10 | Tumor inhibition ratio (Sarcoma 180 [5]; 1 mg/kg/day): 91.6% | Average weight of tumor (Sarcoma 180 [5]; 5 mg/kg/day): 0.41 g | Complete regression (Sarcoma 180 [5]; 5 mg/kg/day): 8/10 | Tumor inhibition ratio (Sarcoma 180 [5]; 5 mg/kg/day): 96.3% | Average weight of tumor (Sarcoma 180 [6]; 1 mg/kg/day): 0 g | Complete regression (Sarcoma 180 [6]; 1 mg/kg/day): 10/10 | Tumor inhibition ratio (Sarcoma 180 [6]; 1 mg/kg/day): 100% | Average weight of tumor (Sarcoma 180 [6]; 5 mg/kg/day): 0 g | Complete regression (Sarcoma 180 [6]; 5 mg/kg/day): 10/10 | Tumor inhibition ratio (Sarcoma 180 [6]; 5 mg/kg/day): 100% | Average weight of tumor (Sarcoma 180 [7]; 1 mg/kg/day): 5.62 g | Complete regression (Sarcoma 180 [7]; 1 mg/kg/day): 0/10 | Tumor inhibition ratio (Sarcoma 180 [7]; 1 mg/kg/day): 56.5% | Average weight of tumor (Sarcoma 180 [7]; 5 mg/kg/day): 4.93 g | Complete regression (Sarcoma 180 [7]; 5 mg/kg/day): 1/10 | Tumor inhibition ratio (Sarcoma 180 [7]; 5 mg/kg/day): 61.8% | Average weight of tumor (Meth-A; 5 mg/kg/day): 7.99 g | Complete regression (Meth-A; 5 mg/kg/day): 0/10 | Tumor inhibition ratio (Meth-A; 5 mg/kg/day): 40.2% | Average weight of tumor (Meth-A; 20 mg/kg/day): 9.33 g | Complete regression (Meth-A; 20 mg/kg/day): 0/10 | Tumor inhibition ratio (Meth-A; 20 mg/kg/day): 30.2% | Toxicity after ultrasonic treatment (ICR-JCL mice; effect of ultrasonic treatment): lower toxicity | LD50 Intraperitoneal administration (ICR-JCL mice): above 5 g/kg | LD50 Intravenous administration (ICR-JCL mice): 1500 mg/kg | LD50 Oral administration (ICR-JCL mice): above 20 g/kg

Source: patent US4398023A, “β-1,3-Glucanpolyol, process for preparation thereof, and utilization thereof” (Meito Sangyo Kabushiki Kaisha, priority 1979, dated 1983)
